Publication PMC3740399, “Carfilzomib in multiple myeloma patients with renal impairment: pharmacokinetics and safety” (Leukemia, 2013)

How the values were obtained:
[1] = Urinary excretion of carfilzomib (LC MS/MS); assay type: in vivo, human
Procedure: Blood for plasma PK analysis was collected on days 1 and 15 of Cycle 1, and on day 15 of Cycle 2, before dosing (t=0), at the end of dosing, and at 5, 15 and 30 min and 1, 1.5, 2, 4, 6 and 24 h after dosing; urine samples were collected cumulatively over 0–5 h and 5–24 h on days 1 and 15 of Cycle 1 following administration of carfilzomib to determine carfilzomib concentrations. Carfilzomib concentrations were determined using validated liquid chromatography tandem mass spectrometry (LC MS/MS) methods with a calibration range of 0.300–300 ng/ml for plasma samples and 4.0–2000 ng/ml for urine samples. Plasma concentration of carfilzomib versus time was plotted on days 1 and 15 in Cycle 1, and PK parameters were calculated using a non-compartmental constant infusion method using WinNonlin (Pharsight, Sunnyvale, CA, USA). To determine whether renal impairment affected the PK of carfilzomib, the relationship between renal function status and relevant PK parameters was evaluated. Statistical comparison (analysis of variance) of the ln-transformed dose-adjusted PK parameters was also performed between patients with normal renal function and each group of patients with renal impairment. For these parameters, 90% confidence intervals (CI) were calculated for the ratios between least squares of the mean (LSM) for each group versus the normal renal function group (Group 1). […]

[2] = design: species or system human; settings: in vivo
Procedure: All patients who received at least one dose of carfilzomib were included in the safety population. Incidence, severity and duration of AEs, including all serious AEs and those considered to be treatment related, and shifts to or from abnormal relative to baseline in key laboratory parameters were categorized according to the National Cancer Institute's Common Terminology Criteria for Adverse Events (CTCAE) Version 3.0.[16] […] ECGs were performed in most patients to satisfy regulatory requirements, but were not required by the study protocol.

[3] = test system: proteasome chymotrypsin-like activity; experiment: Proteasome chymotrypsin-like activity in whole blood (RBC) and PBMC, fluorogenic substrate (LLVY-AMC) assay; assay type: in vivo, human
Procedure: Proteasome chymotrypsin-like activity was measured in whole-blood (red blood cells, RBC) and isolated peripheral blood mononuclear cell samples using a fluorogenic-based substrate assay as previously described.[15] Blood for PDn analysis was collected before carfilzomib dosing and 1 h after carfilzomib dosing on days 1, 2 and 8 of Cycle 1 and on day 1 of Cycle 2.
Figure 2 Proteasome inhibition following the first dose of carfilzomib. Proteasome activity was measured in whole-blood and peripheral blood mononuclear cells before and 1 h after the first dose of 15 mg/m^2 carfilzomib on day 1 of Cycle 1 (using LLVY-AMC substrate). Data are presented as mean activity (±s.e.m.) relative to pre-dose values for each group. The number of patient samples for each Group is noted. Group 1, normal renal function; Group 2, mild renal impairment; Group 3, moderate renal impairment; Group 4, severe renal impairment; Group 5, chronic dialysis.

SMILES: CC(C)C[C@H](NC(=O)[C@H](CCc1ccccc1)NC(=O)CN1CCOCC1)C(=O)N[C@@H](Cc1ccccc1)C(=O)N[C@@H](CC(C)C)C(=O)[C@@]1(C)CO1 [carfilzomib]
- total amount of carfilzomib recovered in the urine, of the administered dose ([1]; all groups, Days 1 and 15 of Cycle 1, within 24 h post-dosing): less than 1%
- mean total concentration of carfilzomib in urine ([1]; group with normal renal function, day 1 of Cycle 1, 15 mg/m^2 IV, post-dose urine collection, LC MS/MS): 0.157 mg
- ECG effects on heart rate, atrioventricular conduction, cardiac depolarization (QT, PR, QRS intervals) [2]: no clinically relevant effects
- inhibition of proteasome CT-L activity from pre-dose levels ([3]; RBCs and peripheral blood mononuclear cells, one hour after the first dose, 15 mg/m^2, range across groups): 73–87%
- recovery of proteasome CT-L activity in RBCs ([3]; by the start of Cycle 2, cumulative inhibition during first treatment cycle): little to no recovery
- recovery of proteasome activity in peripheral blood mononuclear cells ([3]; day 8 (5 days after the most recent dose) and beginning of Cycle 2 (12 days after dosing)): complete or near to complete
